System: drug-resistant Mycobacterium tuberculosis
Details: 5 micrograms per ml

C[C@@H](O)[C@@H]1NC(=O)[C@H](CCCCN)NC(=O)[C@@H](Cc2c[nH]c3ccccc23)NC(=O)[C@H](Cc2ccccc2)NC(=O)[C@@H](NC(=O)[C@H](N)Cc2ccccc2)CSSC[C@@H](C(=O)N[C@H](CO)[C@@H](C)O)NC1=O [Octreotide, H-D-Phe-Cys-Phe-D-Trp-Lys-Thr-Cys-L-threoninol]
% inhibition: 100.0%

Source: patent US20100204149A1, “USE OF OCTREOTIDE AS A THERAPEUTIC AGENT” (priority 2007, published 2010)
